Literature values in patent publication US10125111B2, “Benzofuran compounds for the treatment of hepatitis C” (BRISTOL-MYERS SQUIBB COMPANY, priority 2015, dated 2018).

Tested on: HCV
Settings: cited from earlier work

Molecule	sustained efficacy, patients (combination therapy, patients) [%]	toxicity during extended dosing (combination regimens with interferon and ribavirin)
alpha-interferon and ribavirin	40	
CNC(=O)c1c(-c2ccc(F)cc2)oc2cc(N(CCO)S(C)(=O)=O)c(C3CC3)cc12 [HCV-796]		hepatic toxicity
